# Measured values: patent publication US11117888B2, “Irreversible inhibitors of pyruvate kinase M2 and the use thereof” (China Medical University, priority 2020, dated 2021)
# Assays:
# [1] = test system: MDA-MB-231 breast cancer cells; assay: MTT cell viability assay, MDA-MB-231; format: cell-based; conditions: Homo sapiens; MDA-MB-231, MTT, 24 hours
# Source text: Cell lines, cell culture, biochemical reagents, and antibodies. MiaPaCa-2, AsPC-1, and Panc-1 human pancreatic cancer cells, MCF-7 and MDA-MB-231 breast cancer cells, SCC4 and SCC2059 oral cancer cells, PC-3 and LNCaP prostate cancer cells, H157, H460, H1975, PC-9 and H1650 lung cancer cells were obtained from the American Type Culture Collection (ATCC, Manassas, Va.). All these cells were maintained in recommended growth medium (RPMI 1640 or DMEM) supplemented with 10% fetal bovine serum (FBS) (Invitrogen, Carlsbad, Calif., USA) and antibiotics at 37° C. in a humidified incubator containing 5% CO2. For SILAC experiments, PC-9 cells were grown in SILAC DMEM medium (Thermo Fisher) supplemented with 10% dialyzed FBS and 100 μg/mL each of unlabeled L-arginine and L-lysine (light medium) or ^13C/^15N stable isotope-labeled L-arginine and L-lysine (heavy medium). […]
# Cell viability assays. Drug effects on cell viability was assessed by 3-(4,5-dimethylthiazol-2-yl)-2,5-diphenyltetrazolium bromide ([…]) assays. […] The medium was then removed from each well and replaced with DMSO to dissolve the reduced MTT dye for subsequent colorimetric measurement of absorbance at 560 nm. Cell viabilities are expressed as percentages of viable cells relative to the corresponding vehicle-treated control group.
# [2] = test system: pyruvate kinase activity in PC-9 cells; assay: Pyruvate kinase activity assay in PC-9 cells; format: cell-based, human; conditions: 0.25 μM, 6 hours, relative to vehicle control
# Description: (§1) Pyruvate kinase activity assays. PC-9 cells were seeded into 6 cm dishes at a concentration of 5×10^5 cells/mL. After 24 hours, cells were treated with 0.25 μM compound 1 or DMSO for 6 hours. The pyruvate kinase activity of compound 1-treated PC-9 and vehicle control cells was measured by using a commercial colorimetric assay kit from BioVision (Milpitas, Calif., USA) according to the manufacturer's protocol. In addition, to verify the specificity of compound 1 toward PKM2 versus PKM1, the inhibition of the kinase activity of recombinant PKM1 (SRP0415, Sigma-Aldrich) and recombinant PKM2 (SAE0021, Sigma-Aldrich) by compound 1 was conducted using the aforementioned assay kit.
# recombinant PKM1 = biological target: T1, recombinant PKM1 (Homo sapiens, UniProt P14618); assay: Recombinant PKM1 kinase activity assay; format: biochemical; conditions: after 20 min of exposure
# T1 construct: purchased Sigma-Aldrich SRP0415
# Description: (§2) As this cell-based kinase assay could not rule out the involvement of PKM1, we examined the abilities of compound 1 to inhibit the kinase activity of recombinant PKM2 (SAE0021, Sigma-Aldrich) versus recombinant PKM1 (SRP0415, Sigma-Aldrich) using a commercial PKM assay kit. […] In brief, PC-9 cells were exposed to different concentrations of compound 2 in the presence of compound 1 (1 μM) for 1 hour, lysed, and the cell lysates were treated with biotin-azide, followed by streptavidin bead pulldown under the aforementioned conditions. […] The antigen of compound 1 was prepared by coupling this small molecule with cysteine residues of ovalbumin, which was then used for immunization in guinea pigs.
# as §1
# [3] = test system: PKM2, EGFR, Stat3, β-catenin in PC-9 cells; assay: Immunoblot analysis of oncogenic effectors in PC-9 cells; format: cell-based, human; conditions: Western blot, 24 hours
# Description: Immunoblot analysis. PC-9 cells were seeded into 6 cm dish at a concentration of 5×10^5 cells/mL. After 24 hours, cells were treated with 0-1 μM compound 1 or DMSO alone for 24 hours. The cells were harvested at 24 hours, and protein extractions were carried out. The protein lysate was subjected to 10% SDS-PAGE and transferred to a nitrocellulose membrane (GE Healthcare Life Sciences). Protein expression was analyzed by Western blotting using primary antibodies against PKM2, EGFR, p-STAT3, STAT3, p-β-catenin (Cell Signaling Technology), β-catenin (Santa Cruz Biotechnology) and β-actin (Sigma-Aldrich), followed by incubation with horseradish peroxidase-conjugated secondary (Jackson ImmunoResearch Laboratories). Specific proteins were detected by chemiluminescence using ECL Plus Western Blotting Detection Reagents (GE Healthcare Biosciences).
# [4] = test system: ROS production in PC-9 cells; assay: ROS assay; format: cell-based, human; conditions: 0.25 μM and 0.5 μM, 6 hours
# Description: ROS assay. ROS detection was performed by using a fluorescent assay kit from BioVision (Milpitas, Calif., USA) according to the manufacturer's instructions. Briefly, PC-9 cells were seeded into 96-well plate at a cell density of 2×10^4 cells per well. After 24 hours, cells were treated with indicated concentration of compound 1 or DMSO for 6 hours. After treatment, cells were washed in ROS assay buffer and then incubated with 1×ROS label diluted in ROS assay buffer for 45 min at 37° C. in the dark. The ROS label was removed, and the fluorescence at Ex/Em 495/529 nm in end point mode was measured immediately after 100 μl of ROS assay buffer was added to each well.
# PC-9 xenograft tumors = assay: PC-9 xenograft tumor model in nude mice; format: in vivo; conditions: 10 mg/kg once daily i.p., 25 days
# Description: Pursuant to the above in vitro findings, we evaluated the in vivo tumor-suppressive efficacy of compound 1 in an ectopic PC-9 xenograft tumor model. Athymic nude mice bearing established subcutaneous PC-9 tumors were randomly divided into two groups (n=8 for each group; initial tumor volume: vehicle, 50±11 mm^3; compound 1, 53±6 mm^3), and were treated once daily with compound 1 at 10 mg/kg or vehicle via intraperitoneal injection.
# In vivo efficacy study. Athymic nude mice were purchased from the National Laboratory Animal Center (Taipei, Taiwan). To assess the effect of compound 1 on tumor growth in vivo, 1×10^6 PC-9 cells were mixed with Matrigel (BD Biosciences) at a 1:1 ratio and subcutaneously implanted into nude mice (6-week-old, female; a total of 16 mice). After 7 days, mice were treated with once daily vehicle or 10 mg/kg compound 1 in sterile water containing 0.5% methylcellulose (w/v)+0.1% Tween-80 (v/v) (n=8 for each group). Tumors were measured with calipers and volumes were calculated using V=(width^2×length)×0.52. On day 25, tumors were excised and weighed. Tumor specimens were collected, and expression of target proteins in tumor lysates were analyzed by Western blotting, which were quantified by ImageJ. according to a published online procedure. (https://openwetware.org/wiki/Protein_Quantification_Using_ImageJ).
# PKM2 = PKM2 (Homo sapiens, UniProt P14618); assay: Recombinant PKM2 kinase activity assay; format: biochemical; design: purchased Sigma-Aldrich SAE0021; conditions: after 20 min of exposure
# Description: as §2, §1
# T1 sequence (P14618 1-531 isoform P14618-2): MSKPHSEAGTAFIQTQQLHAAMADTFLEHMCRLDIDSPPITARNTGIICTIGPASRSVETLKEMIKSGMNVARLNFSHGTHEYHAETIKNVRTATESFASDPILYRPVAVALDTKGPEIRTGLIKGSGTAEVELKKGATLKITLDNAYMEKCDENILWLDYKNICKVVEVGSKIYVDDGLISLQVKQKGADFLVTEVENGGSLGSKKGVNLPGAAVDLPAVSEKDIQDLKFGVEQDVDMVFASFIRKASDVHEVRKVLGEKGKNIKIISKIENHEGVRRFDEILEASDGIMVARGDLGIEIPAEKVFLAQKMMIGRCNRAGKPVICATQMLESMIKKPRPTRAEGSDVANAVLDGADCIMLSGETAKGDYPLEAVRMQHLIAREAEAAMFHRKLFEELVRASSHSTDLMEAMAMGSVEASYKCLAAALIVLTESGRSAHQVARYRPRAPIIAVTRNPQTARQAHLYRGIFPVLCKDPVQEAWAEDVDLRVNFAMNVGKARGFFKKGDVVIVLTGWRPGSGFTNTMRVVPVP
# Sequence of PKM2 (P14618 whole entry): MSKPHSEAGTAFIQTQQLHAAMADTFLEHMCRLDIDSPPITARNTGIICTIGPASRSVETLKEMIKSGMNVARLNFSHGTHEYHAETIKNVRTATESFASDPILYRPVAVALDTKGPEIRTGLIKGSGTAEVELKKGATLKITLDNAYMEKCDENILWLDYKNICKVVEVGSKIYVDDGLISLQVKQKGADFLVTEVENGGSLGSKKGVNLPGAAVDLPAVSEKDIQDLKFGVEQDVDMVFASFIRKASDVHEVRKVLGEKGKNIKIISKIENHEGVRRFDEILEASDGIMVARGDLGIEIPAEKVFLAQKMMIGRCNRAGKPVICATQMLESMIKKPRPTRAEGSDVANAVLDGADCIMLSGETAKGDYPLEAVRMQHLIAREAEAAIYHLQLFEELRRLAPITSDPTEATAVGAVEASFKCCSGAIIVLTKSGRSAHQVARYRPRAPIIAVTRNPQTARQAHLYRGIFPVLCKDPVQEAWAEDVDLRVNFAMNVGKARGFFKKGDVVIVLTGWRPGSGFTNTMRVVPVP
smiles,measurement,setting,value
"C#CC(=O)Nc1ccc(-n2nc(CCC(=O)NC)cc2-c2ccc(-c3ccc(C(F)(F)F)cc3)cc2)cc1 [compound 1, N-(4-(3-(3-(Methylamino)-3-oxopropyl)-5-(4′-(trifluoromethyl)-[1,1′-biphenyl]-4-yl)-1H-pyrazol-1-yl)phenyl)propiolamide]",IC50,[1],0.1 µM
same,pyruvate kinase activity in cells,[2],significantly reduced pyruvate kinase activity
same,inhibition of kinase activity of recombinant PKM1,recombinant PKM1,no appreciable inhibition
same,"expression and/or phosphorylation of PKM2, EGFR, Stat3, β-catenin",[3],"downregulated the expression of PKM2 and EGFR, accompanied by parallel decreases in the phosphorylation and expression of Stat3 and β-catenin"
same,ROS level,[4],reduced the ROS level
same,expression of PKM2 and binding partners in tumor lysates,PC-9 xenograft tumors; Western blot,"significant suppression of the expression of PKM2 and its binding partners EGFR, Stat3, and β-catenin"
same,body weight loss,PC-9 xenograft tumors; relative to control,No appreciable weight loss
same,tumor growth (tumor volume and tumor weight),PC-9 xenograft tumors; relative to vehicle,significantly suppressed tumor growth
same,inhibition of kinase activity of recombinant PKM2,PKM2,suppress the kinase activity of PKM2
